For the assay, the target named is T1, Carbonic Anhydrase IX (CA IX) (Homo sapiens, UniProt Q16790).
T1 construct: gene CA9; AA 1-459, GST tag
Nature of the assay: CA inhibitor screening kit (BioVision K473-100), recombinant CA IX, absorbance at […] nm, kinetic mode. The format is biochemical.

Take `Nc1cc(Nc2ccc(S(=O)(=O)Nc3ccccn3)cc2)n(-c2ccccc2)n1` [compound 3, 4-((3-Amino-1-phenyl-1H-pyrazol-5-yl)amino)-N-(pyridin-2-yl) benzenesulfonamide]: the IC50 – broadly, the concentration at which inhibition is half-maximal – turned out to be 0.336 µM. Turning to `Nc1nn(-c2ccccc2)c(-c2ccccc2)c1C(=O)Nc1ccc(S(=O)(=O)Nc2ccccn2)cc1` [compound 11, 3-Amino-1,5-diphenyl-N-(4-(N-(pyridin-2-yl)sulfamoyl)phenyl)-1H-pyrazole-4-carboxamide], the IC50 stood at 0.128 µM.

For the origin of these results see article PMC10082777, “Pyrazole-sulfonamide scaffold featuring dual-tail strategy as apoptosis inducers in colon cancer” (Scientific Reports, 2023).
